Reference: patent publication US20240025883A1, “PYRIMIDIN-2-YL SULFONAMIDE DERIVATIVES” (Hoffmann-La Roche Inc., priority 2021, published 2024)

Assays:
[1] = Microsome clearance assay, human; settings: microsomes
Description: (§1) Incubations at a test compound of 1 mM in microsomes (0.5 mg/mL) plus cofactor NADPH are performed in 96 well plates at 37° C. on a TECAN (Tecan Group Ltd, Switzerland) automated liquid handling system. The final concentration of the test compound in the incubation is 1 microM. After a 10 minutes preincubation step of the test compound with the microsomes, the enzymatic reaction is started by the addition of cofactors. At 1, 3, 6, 9, 15, 25, 35 and 45 minutes, aliquots of the incubations are removed and quenched with 1:3 (v/v) acetonitrile containing internal standards. Samples are then cooled and centrifuged before analysis of the supernatant by LC-MS/MS.

[2] = Microsome clearance assay, mouse; settings: microsomes
Description: as §1

[3] = target: human GPR17 short isoform (Homo sapiens (Human), UniProt Q13304); assay: GPR17 cAMP assay (hGPR17 cAMP, antagonist mode against EC80 of MDL29,951); type: cell-based; settings: CHO-K1 cells stably expressing human GPR17 short isoform; EC80 of agonist MDL29,951; forskolin 15 μM
Summary of the method: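 cAMP was read by competitive TR-FRET after a 30 min room-temperature stimulation: antagonists plus EC80 MDL29,951 and 0.5 mM IBMX, followed 5 min later by 15 μM forskolin. Cells were CHO-K1 with stable human GPR17 short isoform in HBSS/HEPES/BSA, pH 7.4; percent activity versus reference antagonist fitted sigmoidally.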

[4] = Microsome clearance assay, rat; settings: microsomes
Description: as §1

human GPR17 short isoform, sequence (Q13304 29-367): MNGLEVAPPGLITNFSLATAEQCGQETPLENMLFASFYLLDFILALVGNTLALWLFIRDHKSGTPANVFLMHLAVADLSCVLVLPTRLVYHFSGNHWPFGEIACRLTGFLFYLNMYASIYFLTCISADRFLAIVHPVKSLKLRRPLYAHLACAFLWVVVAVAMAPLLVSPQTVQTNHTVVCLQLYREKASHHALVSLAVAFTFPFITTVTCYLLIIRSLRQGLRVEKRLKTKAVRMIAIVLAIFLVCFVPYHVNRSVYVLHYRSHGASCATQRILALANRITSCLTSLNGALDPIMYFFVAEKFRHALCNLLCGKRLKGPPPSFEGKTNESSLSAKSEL

IC50 [3] | other results | Structure (SMILES)
0.069 µM | microsomal CLint at 1 µM [1]: 16 µL/min/mg; microsomal CLint at 1 µM [2]: 10 µL/min/mg; microsomal CLint at 1 µM [4]: 29 µL/min/mg | COc1nc(NS(=O)(=O)c2c[nH]c3cc(Cl)ccc23)ncc1OCCF [Example 1, 6-chloro-N-[5-(2-fluoroethoxy)-4-methoxy-pyrimidin-2-yl]-1H-indole-3-sulfonamide]
0.09 µM |  | COc1nc(NS(=O)(=O)c2c[nH]c3cc(Cl)ccc23)ncc1CC(F)C(F)F (stereo not drawn) [Example 266, 6-chloro-N-[4-methoxy-5-(2,3,3-trifluoropropyl)pyrimidin-2-yl]-1H-indole-3-sulfonamide]
0.049 µM |  | COc1nc(NS(=O)(=O)c2c[nH]c3cc(Cl)ccc23)ncc1OCC#N [Example 267, 6-chloro-N-[5-(cyanomethoxy)-4-methoxy-pyrimidin-2-yl]-1H-indole-3-sulfonamide]
0.165 µM |  | COc1nc(NS(=O)(=O)c2csc3cc(Br)ccc23)ncc1OC(F)F [Example 268, 6-bromo-N-[5-(difluoromethoxy)-4-methoxy-pyrimidin-2-yl]benzothiophene-3-Sulfonamide]
0.138 µM |  | COc1nc(NS(=O)(=O)c2csc3nc(Br)ccc23)nc(OC)c1OC(F)F [Example 269, 6-bromo-N-[5-(difluoromethoxy)-4,6-dimethoxy-pyrimidin-2-yl]thieno[2,3-b]pyridine-3-Sulfonamide]
0.072 µM |  | COc1nc(NS(=O)(=O)c2csc3nc(Br)ccc23)ncc1CCC(F)F [Example 270, 6-bromo-N-[5-(3,3-difluoropropyl)-4-methoxy-pyrimidin-2-yl]thieno[2,3-b]pyridine-3-sulfonamide]
0.29 µM |  | COc1nc(NS(=O)(=O)c2csc3nc(Cl)ccc23)nc(OC)c1OC(F)F [Example 271, 6-chloro-N-[5-(difluoromethoxy)-4,6-dimethoxy-pyrimidin-2-yl]thieno[2,3-b]pyridine-3-Sulfonamide]
1.18 µM |  | COc1nc(NS(=O)(=O)c2c[nH]c3cc(C4COC4)ccc23)ncc1CC(F)F [Example 272, N-[5-(2,2-difluoroethyl)-4-methoxy-pyrimidin-2-yl]-6-(oxetan-3-yl)-1h-indole-3-sulfonamide]
0.128 µM |  | COc1ccc2c(S(=O)(=O)Nc3nc(OC)c(C)c(OC)n3)c[nH]c2c1 [Example 273, N-(4,6-dimethoxy-5-methyl-pyrimidin-2-yl)-6-methoxy-1h-indole-3-sulfonamide]
0.237 µM |  | COc1nc(NS(=O)(=O)c2c[nH]c3cc(C(C)(C)O)ccc23)ncc1CC(F)F [Example 274, N-[5-(2,2-difluoroethyl)-4-methoxy-pyrimidin-2-yl]-6-(1-hydroxy-1-methyl-ethyl)-1h-indole-3-sulfonamide]
0.128 µM |  | COc1nc(NS(=O)(=O)c2c[nH]c3cc(Cl)ccc23)nc(OC)c1OC(F)(F)CO [Example 275, 6-chloro-N-[5-(1,1-difluoro-2-hydroxy-ethoxy)-4,6-dimethoxy-pyrimidin-2-yl]-1H-indole-3-sulfonamide]
0.136 µM |  | COc1nc(NS(=O)(=O)c2c[nH]c3c([S+](C)[O-])c(Cl)ccc23)ncc1CC(F)F (stereo not drawn) [Example 276, 6-chloro-N-[5-(2,2-difluoroethyl)-4-methoxy-pyrimidin-2-yl]-7-methylsulfinyl-1H-indole-3-sulfonamide]
0.718 µM |  | COc1nc(NS(=O)(=O)c2c[nH]c3c(S(C)(=O)=O)c(Cl)ccc23)ncc1CC(F)F [Example 277, 6-chloro-N-[5-(2,2-difluoroethyl)-4-methoxy-pyrimidin-2-yl]-7-mesyl-1h-indole-3-sulfonamide]
0.229 µM |  | COc1nc(NS(=O)(=O)c2c[nH]c3c([S+](C)[O-])c(Cl)ccc23)nc(OC)c1OCCF (stereo not drawn) [Example 278, 6-chloro-N-[5-(2-fluoroethoxy)-4,6-dimethoxy-pyrimidin-2-yl]-7-methylsulfinyl-1h-indole-3-sulfonamide]
0.069 µM |  | COc1nc(NS(=O)(=O)c2c[nH]c3c([S+](C)[O-])c(Cl)ccc23)nc(OC)c1CC(F)F (stereo not drawn) [Example 279, 6-chloro-N-[5-(2,2-difluoroethyl)-4,6-dimethoxy-pyrimidin-2-yl]-7-methylsulfinyl-1H-indole-3-Sulfonamide]
0.062 µM |  | COc1nc(NS(=O)(=O)c2c[nH]c3c(C#N)c(Cl)ccc23)ncc1OCCF [Example 280, 6-Chloro-7-Cyano-N-[5-(2-Fluoroethoxy)-4-Methoxy-Pyrimidin-2-Yl]-1H-Indole-3-Sulfonamide]
0.237 µM |  | COc1nc(NS(=O)(=O)c2c[nH]c3cc(Cl)ccc23)nc(OC)c1CCS(C)(=O)=O [Example 281, 6-Chloro-N-[4,6-Dimethoxy-5-(2-Methylsulfonylethyl)Pyrimidin-2-Yl]-1H-Indole-3-Sulfonamide]

IC50 [3] | other results | Structure (SMILES)
0.11 µM |  | COc1nc(NS(=O)(=O)c2c[nH]c3c2ccc2sncc23)ncc1CC(F)F [Example 282, N-[5-(2,2-Difluoroethyl)-4-Methoxy-Pyrimidin-2-Yl]-1H-Pyrrolo[2,3-e][1,2]Benzothiazole-3-Sulfonamide]
0.013 µM |  | COc1nc(NS(=O)(=O)c2c[nH]c3c(Br)c(Cl)ccc23)nc(OC)c1CC(F)F [Example 283, 7-Bromo-6-Chloro-N-[5-(2,2-Difluoroethyl)-4,6-Dimethoxy-Pyrimidin-2-Yl]-1H-Indole-3-Sulfonamide]
0.273 µM |  | COc1nc(NS(=O)(=O)c2c[nH]c3nc(C)ccc23)nc(OC)c1OCC#N [Example 284, N-[5-(Cyanomethoxy)-4,6-Dimethoxy-Pyrimidin-2-Yl]-6-Methyl-1H-Pyrrolo[2,3-b]Pyridine-3-Sulfonamide]
0.117 µM |  | COc1nc(NS(=O)(=O)c2c[nH]c3nc(C)ccc23)nc(OC)c1OCC(F)F [Example 285, N-[5-(2,2-Difluoroethoxy)-4,6-Dimethoxy-Pyrimidin-2-Yl]-6-Methyl-1H-Pyrrolo[2,3-b]Pyridine-3-Sulfonamide]
0.203 µM |  | COc1nc(NS(=O)(=O)c2c[nH]c3nc(C)ccc23)nc(OC)c1OC(F)F [Example 286, N-[5-(Difluoromethoxy)-4,6-Dimethoxy-Pyrimidin-2-Yl]-6-Methyl-1H-Pyrrolo[2,3-b]Pyridine-3-Sulfonamide]
0.114 µM |  | COc1nc(NS(=O)(=O)c2c[nH]c3nc(C(F)F)ccc23)nc(OC)c1CC(F)CF (stereo not drawn) [Example 287, 6-(Difluoromethyl)-N-[5-(2,3-Difluoropropyl)-4,6-Dimethoxy-Pyrimidin-2-Yl]-1H-Pyrrolo[2,3-b]Pyridine-3-Sulfonamide]
0.057 µM |  | COc1nc(NS(=O)(=O)c2c[nH]c3nc(Br)ccc23)nc(OC)c1CC(F)CF (stereo not drawn) [Example 288, 6-Bromo-N-[5-(2,3-Difluoropropyl)-4,6-Dimethoxy-Pyrimidin-2-Yl]-1H-Pyrrolo[2,3-b]Pyridine-3-Sulfonamide]
0.069 µM |  | COc1nc(NS(=O)(=O)c2c[nH]c3nc(Cl)ccc23)nc(OC)c1CC(F)CF (stereo not drawn) [Example 289, 6-Chloro-N-[5-(2,3-Difluoropropyl)-4,6-Dimethoxy-Pyrimidin-2-Yl]-1H-Pyrrolo[2,3-b]Pyridine-3-Sulfonamide]
0.405 µM |  | COc1nc(NS(=O)(=O)c2c[nH]c3c2ccc2scnc23)ncc1CC(F)F [Example 290, N-[5-(2,2-Difluoroethyl)-4-Methoxy-Pyrimidin-2-Yl]-8H-Pyrrolo[2,3-e][1.3]Benzothiazole-6-Sulfonamide]
0.842 µM |  | COC(=O)c1c(C)ccc2c(S(=O)(=O)Nc3ncc(CC(F)F)c(OC)n3)c[nH]c12 [Example 291, 3-[[5-(2,2-Difluoroethyl)-4-Methoxy-Pyrimidin-2-Yl]Sulfamoyl]-6-Methyl-1H-Indole-7-Carboxylic Acid Methyl Ester]
0.433 µM |  | COc1nc(NS(=O)(=O)c2c[nH]c3c(CO)c(C)ccc23)ncc1CC(F)F [Example 292, N-[5-(2,2-Difluoroethyl)-4-Methoxy-Pyrimidin-2-Yl]-6-Methyl-7-Methylol-1H-Indole-3-Sulfonamide]
0.24 µM |  | COc1nc(NS(=O)(=O)c2c[nH]c3c4c(ccc23)CCN(C)C4=O)ncc1OCCF [Example 293, N-[5-(2-Fluoroethoxy)-4-Methoxy-Pyrimidin-2-Yl]-9-Keto-8-Methyl-6,7-Dihydro-1H-Pyrrol[3,2-h]Isoquinoline-3-Sulfonamide]
0.024 µM |  | COc1nc(NS(=O)(=O)c2c[nH]c3c(OCC#N)c(Cl)ccc23)nc(OC)c1CC(F)F [Example 294, 6-Chloro-7-(Cyanomethoxy)-N-[5-(2,2-Difluoroethyl)-4,6-Dimethoxy-Pyrimidin-2-Yl]-1H-Indole-3-Sulfonamide]
 | microsomal CLint at 1 µM [1]: 121 µL/min/mg; microsomal CLint at 1 µM [2]: 77 µL/min/mg; microsomal CLint at 1 µM [4]: 357 µL/min/mg | COc1nc(NS(=O)(=O)c2c[nH]c3cc(Cl)ccc23)c(F)cc1OCCF [RE-A, 6-chloro-N-[3-fluoro-5-(2-fluoroethoxy)-6-methoxy-2-pyridyl]-1H-indole-3-sulfonamide, reference compound]
 | microsomal CLint at 1 µM [1]: 11 µL/min/mg; microsomal CLint at 1 µM [2]: 26 µL/min/mg; microsomal CLint at 1 µM [4]: 65 µL/min/mg | COc1nc(NS(=O)(=O)c2c[nH]c3c(F)c(Cl)ccc23)c(F)cc1OCC(F)F [RE-B, reference compound]
 | microsomal CLint at 1 µM [1]: 35 µL/min/mg; microsomal CLint at 1 µM [2]: 81 µL/min/mg; microsomal CLint at 1 µM [4]: 286 µL/min/mg | COc1nc(NS(=O)(=O)c2c[nH]c3cc(Cl)ccc23)c(F)cc1CC(F)F [RE-C, 6-chloro-N-[5-(2,2-difluoroethyl)-3-fluoro-6-methoxy-2-pyridyl]-1H-indole-3-sulfonamide, reference compound]
 | microsomal CLint at 1 µM [1]: 103 µL/min/mg; microsomal CLint at 1 µM [2]: 121 µL/min/mg; microsomal CLint at 1 µM [4]: 869 µL/min/mg | COc1nc(NS(=O)(=O)c2c[nH]c3cc(Cl)ccc23)c(F)cc1CCC#N [RE-D, 6-chloro-N-[5-(2-cyanoethyl)-3-fluoro-6-methoxy-2-pyridyl]-1H-indole-3-sulfonamide, reference compound]
